Measured values: ChEMBL document CHEMBL1128933, “Structural comparison of alkylpolyamine analogues with potent in vitro antitumor or antiparasitic activity” (Bioorg Med Chem Lett, 1996)

Tests used:
Trypanosoma brucei [1] = experiment: Compound was evaluated for growth brucei LAB 110 strain.; assay type: functional, organism-based
NCH82 = experiment: Compound was evaluated for inhibitory activity against H82 small cell lung carcinoma.; assay type: functional, cell-based; settings: Homo sapiens
Trypanosoma brucei [2] = experiment: Compound was evaluated for growth brucei K243 As-10-3 strain.; assay type: functional, organism-based
Trypanosoma brucei [3] = experiment: Compound was evaluated for growth brucei K269 strain.; assay type: functional, organism-based
Trypanosoma brucei [4] = experiment: Compound was evaluated for growth brucei K243 strain.; assay type: functional, organism-based
NCI-H157 = experiment: Compound was evaluated for inhibitory activity against H157 non-small cell lung carcinoma.; assay type: functional, cell-based; settings: Homo sapiens

## C#CCNCCCNCCCNCCCNCC
Trypanosoma brucei [1]
  IC50: > 100 µM
NCH82
  IC50: 5.2 µM
Trypanosoma brucei [2]
  IC50: > 100 µM
Trypanosoma brucei [3]
  IC50: > 100 µM
Trypanosoma brucei [4]
  IC50: > 100 µM
NCI-H157
  IC50: 0.7 µM

## CCNCCCNCCCNCCCNCC1CCCCCC1
Trypanosoma brucei [1]
  IC50: > 100 µM
NCH82
  IC50: 1.7 µM
Trypanosoma brucei [2]
  IC50: > 100 µM
Trypanosoma brucei [3]
  IC50: > 100 µM
Trypanosoma brucei [4]
  IC50: > 100 µM
NCI-H157
  IC50: 0.5 µM

## C(CCCNCCCNCC1CCCCCC1)CCCNCCCNCC1CCCCCC1
Trypanosoma brucei [1]
  IC50: 0.125 µM
NCH82
  IC50: 1.5 µM
Trypanosoma brucei [2]
  IC50: 0.78 µM
Trypanosoma brucei [3]
  IC50: 0.69 µM
Trypanosoma brucei [4]
  IC50: 0.98 µM
NCI-H157
  IC50: 2.1 µM

## CCNCCCNCCCCCCCNCCCNCC1CCCCCC1
Trypanosoma brucei [1]
  IC50: 18 µM
NCH82
  IC50: 9 µM
Trypanosoma brucei [2]
  IC50: 26.2 µM
Trypanosoma brucei [3]
  IC50: 21 µM
Trypanosoma brucei [4]
  IC50: 18.4 µM
NCI-H157
  IC50: > 10 µM

## c1ccc(CNCCCNCCCCCCCNCCCNCc2ccccc2)cc1
Trypanosoma brucei [1]
  IC50: 14.5 µM
Trypanosoma brucei [2]
  IC50: 13 µM
Trypanosoma brucei [3]
  IC50: 12.3 µM
Trypanosoma brucei [4]
  IC50: 15.1 µM

## CCNCCCNCCCNCCCNCC1CC1
Trypanosoma brucei [1]
  IC50: > 100 µM
NCH82
  IC50: 0.7 µM
Trypanosoma brucei [2]
  IC50: > 100 µM
Trypanosoma brucei [3]
  IC50: > 100 µM
Trypanosoma brucei [4]
  IC50: > 100 µM
NCI-H157
  IC50: 0.4 µM

## CCNCCCNCCCCNCCCNCC [BIS(ETHYL)SPERMINE]
NCI-H157
  IC50: 2.9 µM
